Results taken from patent publication US20230106592A1, “METHOD FOR TREATING CANCER USING A COMBINATION OF DNA DAMAGING AGENTS AND ATR INHIBITORS” (Vertex Pharmaceuticals Incorporated, priority 2015, published 2023).
Entries after “also recorded” stand apart in the source; their conditions may differ.

How the values were obtained:
[1] = system: PSN1 cancer cells; test: In vitro dose schedule with gemcitabine, MTS cell viability, Bliss synergy analysis; type: cell-based, human
Protocol: Cell viability was measured by MTS assay at 96 hours and the data subjected to a statistical Bliss analysis using MacSynergy II software to quantitate synergy as a log volume.
Cell viability was measured by MTS assay (96 hours) and the data subjected to a statistical Bliss analysis. Compound A-2 synergized with gemcitabine when administered at the start of gemcitabine treatment. […] The strong schedule dependence is attributed to an accumulation of cells in S phase, and concomitant increase in ATR activity (measured by P-Chk1) that occurs in response to gemcitabine treatment alone.

[2] = system: PSN1 human pancreatic cancer xenografts; test: PSN1 xenograft, dose schedule in combination with gemcitabine; type: in vivo, Nude mice
[3] = system: OD26749 primary human non-small cell lung cancer xenografts; test: Primary NSCLC xenograft, dose schedule in combination with cisplatin; type: in vivo, SCID mice
Source text: This contrasts with the effects of either agent given alone, where neither Compound A-2the nor cisplatin had any meaningful impact on tumor growth (≤10% tumor growth inhibition).

[4] = system: advanced solid tumors; test: Phase I trial, combination with carboplatin: RECIST response and PFS; type: in vivo, human
Protocol: (§1) Pts with advanced solid tumors enrolled in 2 sequential parts.
In part A, single pt cohorts received a compound of Formula A-2 once weekly in 21-day cycles with 3+3 dose escalation cohorts being implemented if grade 2 drug-related adverse events (AEs) occurred. […] If a DLT was reported, the cohort was expanded to include 3 additional pts with subsequent dose escalation being permitted if no further DLTs occurred. Paired pre- and post-treatment biopsies from selected pts in part B were assessed for pCHK1 levels by immunohistochemistry. Models based on preclinical and clinical data were used to simulate hematologic toxicities and pCHK1 inhibition for pts treated with a compound of Formula A-2 and CP.

[5] = Phase I trial, monotherapy and carboplatin combination: pharmacokinetics; type: in vivo, human; settings: for half-life: human, plasma
Source text: as §1

[6] = system: pS345 Chk1; test: pChk1 in paired tumor biopsies by immunohistochemistry; type: in vivo, human; settings: for Decreased Chk1 phosphorylation: paired tumor biopsy
Source text: In some embodiments, one or more biomarkers may be used to monitor or determine the efficacy of the treatment. In certain embodiments, the percentage of phosphorylated Chk1 (i.e., pChk1) in paired samples may be used as a biomarker; pChk1 is believed to correlate with the level of ATR activity. For instance, in some embodiments, the amount of pChk1 in the nuclei of cancer cells/mm^2 of a tumor biopsy may be used to determine the efficacy of monotherapy with an ATR inhibitor or combination therapy including an ATR inhibitor in a subject. In some such embodiments, a first tumor biopsy may be taken between about one to about three hours (e.g., two hours) before administration of the ATR inhibitor and a second tumor biopsy may be taken between about one to about three hours (e.g., two hours) after administration of the ATR inhibitor. The amount of pChk1 in the nuclei of cancer cells/mm^2 tumor in the first biopsy is set to be 100%, such that the amount of pChk1 in the nuclei of cancer cells/mm^2 tumor in the second biopsy is normalized by the amount in the first biopsy.
as §1
As noted in Example 3, phosphorylated Chk1 was used as a biomarker in paired tumor biopsies of three subjects to determine the efficacy of the combination therapy. […] The amount of pChk1 in the nuclei of cancer cells/mm^2 tumor in the first biopsy was set to 100% and used to normalize the amount in the second biopsy.

[7] = Phase I trial, combination with cisplatin: pharmacokinetics; type: in vivo, human
Source text: Non-DLT grade 3-4 treatment-related adverse events occurred in 11 pts, including nausea, cytopenia, hypotension, hypoalbuminemia, hypokalemia, elevated liver function tests (LFTs), and drug hypersensitivity. The maximum tolerated combination dose was not reached.

[8] = Phase I trial, combination with cisplatin: adverse events and DLTs
Protocol: Twenty eight (28) pts (12 males and 16 females) of median age, 62.5 yrs (range 28-79 yrs), with Eastern Cooperative Oncology Group (ECOG) performance status 0-1 were treated. Primary tumors were breast (n=4), colorectal (n=3), ovarian (n=3), pancreatic (n=2), non-small cell lung cancer (NSCLC) (n=1), and other cancers (n=15).

[9] = Phase I trial, combination with gemcitabine: adverse events and DLTs
Protocol: Fifty (50) pts (28 males and 22 females) of median age, 62 yrs (range 28-79 yrs), with Eastern Cooperative Oncology Group (ECOG) performance status 0/1:15/35 were treated. Primary tumors included non-small cell lung (NSCLC; n=6), pancreatic (n=2), breast (n=4), colorectal (n=15), head and neck (n=1), and other/missing (n=22).

[10] = Compound A-2 10 mg/kg twice weekly, 14 hours after cisplatin 3 mg/kg weekly

CNCc1ccc(-c2cc(-c3nc(-c4ccc(S(=O)(=O)C(C)C)cc4)cnc3N)on2)cc1 [Compound A-2]
Synergy with gemcitabine (Bliss analysis of cell viability) ([1]; Compound A-2 2 hour exposure at the start of 24 hour gemcitabine treatment, MTS at 96 hours): synergized | Synergy with gemcitabine (Bliss analysis of cell viability) ([1]; Compound A-2 administered 24 hours after starting gemcitabine treatment): maximal | Synergy with gemcitabine (Bliss analysis of cell viability) ([1]; Compound A-2 administered 48 hours or later after gemcitabine treatment was started): No synergy | Efficacy (tumor volume) ([2]; Compound A-2 20 mg/kg every 6 days, dosed 12 to 24 hours after gemcitabine 15 mg/kg every 3 days): most effective | Benefit over gemcitabine treatment ([2]; Compound A-2 dosed before gemcitabine, or 48 hours after gemcitabine): limited benefit | Efficacy (tumor volume) ([2]; Compound A-2 dosed within 12 hours or beyond 24 hours of gemcitabine administration): reduced efficacy | Body weight loss ([2]; addition of Compound A-2 to gemcitabine compared with gemcitabine only): did not lead to increased body weight loss | Efficacy (tumor volume) ([3]; Compound A-2 10 mg/kg twice weekly dosed 14 hours after cisplatin 3 mg/kg weekly): most effective | Growth delay [3, 10]: substantial growth delay | Tumor regression [3, 10]: 43% | Body weight loss at nadir ([3]; combination of Compound A-2 and cisplatin): < 2% | PFS (progression-free survival) ([4]; Subject 1, Ovarian, Compound A-2 120 mg/m^2 + carboplatin AUC 5 mg/mL·min): 175 days | PFS (progression-free survival) ([4]; Subject 2, Ovarian, Compound A-2 90 mg/m^2 + carboplatin AUC 5 mg/mL·min): 176 days | PFS (progression-free survival) ([4]; Subject 3, Breast, Compound A-2 90 mg/m^2 + carboplatin AUC 5 mg/mL·min): 67 days | Best response ([4]; part B with CP (n=1)): partial response | RECIST response ([4]; platinum and antimetabolite refractory high grade serous ovarian cancer subject, carboplatin AUC 5 day 1, Compound A-2 90 mg/m^2 days 2 and 9): partial response | Duration of RECIST partial response ([4]; refractory ovarian cancer subject, carboplatin AUC 5 + Compound A-2 90 mg/m^2, ongoing): more than 6 months | Drug interaction with carboplatin ([5]; Compound A-2 exposure alone versus combined with CP): no apparent drug interactions; also recorded: no interaction | Accumulation ([5]; IV, patients): no accumulation | AUC and Cmax versus dose ([5]; all DLs): linear | Pharmacokinetics (PK) versus dose ([5]; as a monotherapy and in combination with CP): dose proportional | half-life ([5]; intravenous, monotherapy and combination with carboplatin, read-out: Terminal elimination half-life (t1/2) (converted)): ~16 h | half-life ([5]; IV, patients, read-out: Median half-life (converted)): 16 h | Exposure (AUCinf and Cmax) versus dose ([5]; monotherapy and combination with carboplatin): increased proportionally | Decreased Chk1 phosphorylation ([6]; DL2 (120 mg/m^2 + CP AUC 5)): 94% | Decreased Chk1 phosphorylation ([6]; DL4 (90 mg/m^2 + CP AUC 5)): 74% | Decrease in pChk1 in nuclei of cancer cells/mm^2 tumor ([6]; subject 1: carboplatin target AUC 5 mg/mL·min + 120 mg/m^2 Compound A-2, biopsy 2 hours before and after): 94% | Decrease in pChk1 in nuclei of cancer cells/mm^2 tumor ([6]; subjects 2 and 3: carboplatin target AUC 5 mg/mL·min + 90 mg/m^2 Compound A-2): 73% | half-life ([7]; both sexes, human, in vivo, intravenous, combination with CIS, read-out: Terminal elimination half-life (converted)): ~16 h | PK across the dosage ranges ([7]; combination with CIS, 90-210 mg/m^2): proportional | Effect of CIS on the pharmacokinetics of Compound A-2 ([7]; in vivo): no effect | Non-DLT grade 3-4 treatment-related adverse events ([8]; CIS day 1, Compound A-2 days 2 and 9, 28 pts): 11 pts | No. DLTs ([8]; Cohort 4: Compound A-2 210 mg/m^2 + Cisplatin 60 mg/m^2, 10/10, grade 3 elevated ALT): 1 (grade 3 | No. DLTs ([8]; Cohort 5: Compound A-2 140 mg/m^2 + Cisplatin 75 mg/m^2, 7/6, grade 3 drug hypersensitivity): 1 (grade 3 drug | Maximum tolerated combination dose ([8]; combination with CIS): not reached | DLTs ([9]; DL4: 72 mg/m^2 + gem 875 mg/m^2, grade 3 thrombocytopenia, grade 3 elevated ALT and fatigue): 2 pts | DLTs ([9]; DL5: 90 mg/m^2 + gem 500 mg/m^2, grade 3 elevated AST): 1 pt | DLTs ([9]; DL6: 140 mg/m^2 + gem 500 mg/m^2, grade 3 elevated AST, ALT and grade 2 elevated ALP): 1 pt | DLTs ([9]; all DLs, 50 pts): 4 pts | Cumulative toxicity ([9]; combination with gem): No cumulative toxicity | Maximum tolerated dose ([9]; combination with gem, up to DL10): not reached | Grade 3/4 treatment-related adverse events (AEs) ([9]; gem days 1 and 8, Compound A-2 days 2 and 9, 50 pts): 25 pts
